In patent US20130096141A1, “BICYCLIC HETEROCYCLE DERIVATIVES AND METHODS OF USE THEREOF” (priority 2010, published 2013):
pEC50: −log10 of the molar value.

molecular target: T1, GPR119 receptor (Homo sapiens, UniProt Q8TDV5); test: cAMP assay in cells transfected with the GPR119 receptor (human); type: cell-based; settings: increase in intracellular cAMP, read-out: h-cAMP EC50
T1 construct: expressed in transfected cells
T1 sequence (Q8TDV5 1-335): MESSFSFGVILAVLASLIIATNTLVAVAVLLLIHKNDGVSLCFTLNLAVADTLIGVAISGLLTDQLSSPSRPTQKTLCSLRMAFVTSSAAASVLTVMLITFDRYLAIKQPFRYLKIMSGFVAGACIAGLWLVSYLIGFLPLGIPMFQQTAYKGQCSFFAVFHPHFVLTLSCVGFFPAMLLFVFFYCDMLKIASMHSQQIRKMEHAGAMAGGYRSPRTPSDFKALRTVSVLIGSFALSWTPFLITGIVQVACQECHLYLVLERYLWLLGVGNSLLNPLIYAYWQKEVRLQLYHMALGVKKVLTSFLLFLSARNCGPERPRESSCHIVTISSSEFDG
Description: The activity of these compounds may be assayed in cells transfected the GPR119 receptor (human, mouse, rat or monkey). Incubation with the above compounds results in an increase in intracellular cAMP, from which an EC50 value may be calculated. Ki values for compounds at this receptor can be determined by employing a radio-labeled agonist. In vivo activity can be determined by conducting an oral glucose-tolerance test in an appropriate species, such as mouse.

pEC50 | Structure (SMILES)
9.13 | COCc1ccc(-c2csc3c(OC4C5COCC4CN(C(=O)OC4(C)CC4)C5)ncnc23)c(F)c1 (stereo not shown) [Example 30]
8.85 | CC1(OC(=O)N2CC3COCC(C2)C3Oc2ncnc3c(-c4ccc(F)c(CO)c4F)csc23)CC1 (stereo not shown) [Example 48]
7.62 | CC1(OC(=O)N2CC3COCC(C2)C3Oc2ncnc3c(-c4ccc(C#N)cc4Cl)csc23)CC1 (stereo not shown) [Example 10]
8.66 | CC1(OC(=O)N2CC3COCC(C2)C3Oc2ncnc3c(-c4ccc(S(C)(=O)=O)cc4)csc23)CC1 (stereo not shown) [Example 50]
6.61 | CS(=O)(=O)c1ccc(-c2c[nH]c3c(OC4C5COCC4CN(c4ncc(Cl)cn4)C5)ncnc23)c(F)c1 (stereo not shown) [Example 16]
7.64 | CS(=O)(=O)c1ccc(-c2csc3c(OC4C5COCC4CN(c4ncc(Cl)cn4)C5)ncnc23)c(F)c1 (stereo not shown) [Example 4]
9.36 | COc1ccc(-c2csc3c(OC4C5COCC4CN(C(=O)OC4(C)CC4)C5)ncnc23)c(Cl)c1 (stereo not shown) [Example 38]
8.80 | N#Cc1ccc(-c2csc3c(OC4C5COCC4CN(CC(F)(F)C(F)(F)F)C5)ncnc23)c(F)c1 (stereo not shown) [Example 37]
8.10 | CC(C)(C)OC(=O)N1CC2COCC(C1)C2Oc1ncnc2c(-c3ccc(C#N)cc3F)csc12 (stereo not shown) [Example 1]
9.30 | CC(C)(O)COc1ccc(-c2csc3c(OC4C5COCC4CN(C(=O)OC4(C)CC4)C5)ncnc23)c(F)c1 (stereo not shown) [Example 52]
8.28 | Cn1cc(-c2ccc(S(C)(=O)=O)cc2F)c2ncnc(OC3C4COCC3CN(c3ncc(Cl)cn3)C4)c21 (stereo not shown) [Example 21]
8.68 | COc1ccc(-c2csc3c(OC4C5COCC4CN(c4ncc(Cl)cn4)C5)ncnc23)c(F)c1 (stereo not shown) [Example 28]
9.32 | CC1(OC(=O)N2CC3COCC(C2)C3Oc2ncnc3c(-c4ccc(CO)cc4F)csc23)CC1 (stereo not shown) [Example 29]
9.00 | CC1(OC(=O)N2CC3COCC(C2)C3Oc2ncnc3c(-c4ccc(O)cc4F)csc23)CC1 (stereo not shown) [Example 44]
9.44 | Cc1ccc(-c2csc3c(OC4C5COCC4CN(C(=O)OC4(C)CC4)C5)ncnc23)c(F)c1 (stereo not shown) [Example 39]
6.53 | CC1(OC(=O)N2CC3COCC(C2)C3Oc2ncnc3c(-c4ccc(C#N)cc4F)c[nH]c23)CC1 (stereo not shown) [Example 14]
9.12 | COc1ccc(-c2csc3c(OC4C5COCC4CN(C(=O)OC(C)C)C5)ncnc23)c(F)c1 (stereo not shown) [Example 27]
9.00 | CC1(OC(=O)N2CC3COCC(C2)C3Oc2ncnc3c(-c4ccc(C#N)cc4)csc23)CC1 (stereo not shown) [Example 47]
9.29 | CC1(OC(=O)N2CC3COCC(C2)C3Oc2ncnc3c(-c4ncc(F)cc4F)csc23)CC1 (stereo not shown) [Example 40]
8.77 | Cc1c(F)ccc(-c2csc3c(OC4C5COCC4CN(C(=O)OC4(C)CC4)C5)ncnc23)c1F (stereo not shown) [Example 49]
7.33 | CS(=O)(=O)c1ccc(-c2csc3c(OC4C5COCC4CN(c4ncc(F)cn4)C5)ncnc23)c(F)c1 (stereo not shown) [Example 7]
8.70 | CC1(OC(=O)N2CC3COCC(C2)C3Oc2ncnc3c(-c4ccc(Cl)cc4F)csc23)CC1 (stereo not shown) [Example 22]
8.24 | COc1ccc(-c2cn(C)c3c(OC4C5COCC4CN(C(=O)OC4(C)CC4)C5)ncnc23)c(F)c1 (stereo not shown) [Example 32]

pEC50 | Structure (SMILES)
8.05 | CC1(OC(=O)N2CC3COCC(C2)C3Oc2ncnc3c(-c4ccc(C#N)cc4F)csc23)CC1 (stereo not shown) [Example 3]
7.89 | Cn1cc(-c2ccc(C#N)cc2F)c2ncnc(OC3C4COCC3CN(C(=O)OC3(C)CC3)C4)c21 (stereo not shown) [Example 17]
8.92 | CC1(OC(=O)N2CC3COCC(C2)C3Oc2ncnc3c(-c4ccc(F)cc4C#N)csc23)CC1 (stereo not shown) [Example 24]
7.33 | CC(C)(C)OC(=O)N1CC2COCC(C1)C2Oc1ncnc2c(-c3ccc(C#N)cc3Cl)csc12 (stereo not shown) [Example 9]
8.08 | Cn1cc(-c2ccc(F)cc2F)c2ncnc(OC3C4COCC3CN(C(=O)OC3(C)CC3)C4)c21 (stereo not shown) [Example 31]
7.07 | CC1(OC(=O)N2CC3COCC(C2)C3Oc2ncnc3c(-c4ccc(C(=O)C5CC5)cc4Cl)csc23)CC1 (stereo not shown) [Example 12]
9.42 | CCS(=O)(=O)c1ccc(-c2csc3c(OC4C5COCC4CN(C(=O)OC4(C)CC4)C5)ncnc23)cc1 (stereo not shown) [Example 43]
9.19 | CC1(OC(=O)N2CC3COCC(C2)C3Oc2ncnc3c(-c4ccc(OCCO)cc4F)csc23)CC1 (stereo not shown) [Example 51]
9.33 | CC1(OC(=O)N2CC3COCC(C2)C3Oc2ncnc3c(-c4ccc(S(C)(=O)=O)cc4F)csc23)CC1 (stereo not shown) [Example 41]
7.21 | CC(C)(C)OC(=O)N1CC2COCC(C1)C2Oc1ncnc2c(-c3ccc(S(C)(=O)=O)cc3F)csc12 (stereo not shown) [Example 2]
9.00 | Cn1cc(-c2ccc(S(C)(=O)=O)cc2F)c2ncnc(OC3C4COCC3CN(C(=O)OC3(C)CC3)C4)c21 (stereo not shown) [Example 42]
9.34 | COC(=O)c1ccc(-c2csc3c(OC4C5COCC4CN(C(=O)OC4(C)CC4)C5)ncnc23)c(F)c1 (stereo not shown) [Example 25]
7.35 | COc1ccc(-c2csc3c(OC4C5COCC4CN(CC(F)(F)C(F)(F)F)C5)ncnc23)c(F)c1 (stereo not shown) [Example 35]
9.00 | CS(=O)(=O)c1ccc(-c2csc3c(OC4C5COCC4CN(CC(F)(F)C(F)(F)F)C5)ncnc23)c(F)c1 (stereo not shown) [Example 33]
8.60 | COC(=O)COc1ccc(-c2csc3c(OC4C5COCC4CN(C(=O)OC4(C)CC4)C5)ncnc23)c(F)c1 (stereo not shown) [Example 46]
6.82 | CCCc1cnc(N2CC3COCC(C2)C3Oc2ncnc3c(-c4ccc(S(C)(=O)=O)cc4F)csc23)nc1 (stereo not shown) [Example 8]
8.96 | COc1ccc(-c2csc3c(OC4C5COCC4CN(C(=O)OC4(C)CC4)C5)ncnc23)c(F)c1 (stereo not shown) [Example 23]
7.74 | CC(C)(C)OC(=O)N1CC2COCC(C1)C2Oc1ncnc2c(-c3ccc(F)cc3F)csc12 (stereo not shown) [Example 5]
7.46 | N#Cc1ccc(-c2csc3c(OC4C5COCC4CN(CC(F)(F)C(F)(F)F)C5)ncnc23)c(Cl)c1 (stereo not shown) [Example 36]
7.74 | N#Cc1ccc(-c2csc3c(OC4C5COCC4CN(c4ncc(Cl)cn4)C5)ncnc23)c(Cl)c1 (stereo not shown) [Example 11]
7.14 | Fc1ccc(-c2csc3c(OC4C5COCC4CN(CC(F)(F)C(F)(F)F)C5)ncnc23)c(F)c1 (stereo not shown) [Example 34]
7.80 | CC1(OC(=O)N2CC3COCC(C2)C3Oc2ncnc3c(-c4ccc(F)cc4F)csc23)CC1 (stereo not shown) [Example 6]
10.00 | CC1(OC(=O)N2CC3COCC(C2)C3Oc2ncnc3c(-c4ccc(F)cc4Cl)csc23)CC1 (stereo not shown) [Example 45]
